system: Bmi-1 protein; experiment: Sandwich ELISA Assay: Bmi-1 protein level in HT-1080 cells treated with test compounds; assay type: cell-based
Method in brief: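 HT-1080 cells exposed to compounds (final DMSO 0.5%) for 40-48 h at 37° C, 5% CO2, then lysed. Bmi-1 quantified by sandwich ELISA (mouse anti-Bmi-1 capture, rabbit anti-Bmi-1 detection, HRP anti-rabbit, TMB), read at OD450 with OD570 reference, against recombinant GST-Bmi-1 standard curve (0-8000 pg/mL).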

Structure (SMILES) | EC50 [nM]
Cc1nc2cc(Cl)ccc2n1-c1nc(N)nc(Nc2ccc(OC(F)F)cc2)n1 [Cpd 80, 6-(5-chloro-2-methyl-1H-benzimidazol-1-yl)-N-[4-(difluoromethoxy)phenyl]-1,3,5-triazine-2,4-diamine] | 100 to 3000
Cc1nc2cc(F)ccc2n1-c1nc(N)nc(Nc2ccc(C(F)(F)F)cc2)n1 [Cpd 27, 6-(5-fluoro-2-methyl-1H-benzimidazol-1-yl)-N-[4-(trifluoromethyl)phenyl]-1,3,5-triazine-2,4-diamine] | 100 to 3000
CCc1nc2ccc(F)cc2n1-c1cnnc(Nc2ccc(OC(F)F)cc2)n1 [Cpd 137, N-[4-(difluoromethoxy)phenyl]-5-(2-ethyl-6-fluoro-1H-benzimidazol-1-yl)-1,2,4-triazin-3-amine] | 100 to 3000
Fc1ccc2nc(C3CC3)n(-c3cnnc(Nc4ccc(OC(F)F)cc4)n3)c2c1 [Cpd 138, 5-(2-cyclopropyl-6-fluoro-1H-benzimidazol-1-yl)-N-[4-(difluoromethoxy)phenyl]-1,2,4-triazin-3-amine] | 100 to 3000
Nc1nc(Nc2ccc(OC(F)F)c(F)c2)nc(-n2c(C3CC3)nc3cc(F)ccc32)n1 [Cpd 67, 6-(2-cyclopropyl-5-fluoro-1H-benzimidazol-1-yl)-N-[4-(difluoromethoxy)-3-fluorophenyl]-1,3,5-triazine-2,4-diamine] | 100 to 3000
CCc1nn2ccccc2c1-c1nc(N)nc(Nc2ccc(C(F)(F)F)cc2)n1 [Cpd 128, 6-(2-ethylpyrazolo[1,5-a]pyridin-3-yl)-N-[4-(trifluoromethyl)phenyl]-1,3,5-triazine-2,4-diamine] | 100 to 3000
Cc1nc2cc(F)ccc2n1-c1nc(N)nc(Nc2ccc(C(F)(F)F)nc2)n1 [Cpd 52, 6-(5-fluoro-2-methyl-1H-benzimidazol-1-yl)-N-[6-(trifluoromethyl)pyridin-3-yl]-1,3,5-triazine-2,4-diamine] | 100 to 3000
Cc1nn2ccccc2c1-c1nc(N)nc(Nc2ccc(OC(F)F)cc2)n1 [Cpd 123, N-[4-(difluoromethoxy)phenyl]-6-(2-methylpyrazolo[1,5-a]pyridin-3-yl)-1,3,5-triazine-2,4-diamine] | 100 to 3000
Cc1nc2ccc(F)cc2n1-c1nc(N)nc(Nc2ccc(Cl)c(F)c2)n1 [Cpd 201, N-(4-chloro-3-fluorophenyl)-6-(6-fluoro-2-methyl-1H-benzimidazol-1-yl)-1,3,5-triazine-2,4-diamine] | 100 to 3000
Cc1nc2c(F)cc(F)cc2n1-c1nc(N)nc(Nc2ccc(Cl)c(F)c2)n1 [Cpd 199, N-(4-chloro-3-fluorophenyl)-6-(4,6-difluoro-2-methyl-1H-benzimidazol-1-yl)-1,3,5-triazine-2,4-diamine] | 100 to 3000
CCc1nc2cc(F)c(F)cc2n1-c1nc(N)nc(Nc2ccc(C(F)(F)F)cc2)n1 [Cpd 116, 6-(2-ethyl-5,6-difluoro-1H-benzimidazol-1-yl)-N-[4-(trifluoromethyl)phenyl]-1,3,5-triazine-2,4-diamine] | 100 to 3000
Cc1nc2ccccc2n1-c1nc(N)nc(Nc2cccc(OC(F)F)c2)n1 [Cpd 93, N-[3-(difluoromethoxy)phenyl]-6-(2-methyl-1H-benzimidazol-1-yl)-1,3,5-triazine-2,4-diamine] | 100 to 3000
Nc1nc(Nc2ccc(C(F)(F)F)cc2)nc(-n2c(CO)nc3ccccc32)n1 [Cpd 118, [1-(4-amino-6-{[4-(trifluoromethyl)phenyl]amino}-1,3,5-triazin-2-yl)-1H-benzimidazol-2-yl]methanol] | 100 to 3000
Cc1nc2ncc(Cl)cc2n1-c1nc(N)nc(Nc2ccc(OC(F)(F)F)cc2)n1 [Cpd 152, 6-(6-chloro-2-methyl-1H-imidazo[4,5-b]pyridin-1-yl)-N-[4-(trifluoromethoxy)phenyl]-1,3,5-triazine-2,4-diamine] | 100 to 3000
CCc1nc2ccc(F)cc2n1-c1nc(N)nc(Nc2ccc(C(F)(F)F)cc2)n1 [Cpd 55, 6-(2-ethyl-6-fluoro-1H-benzimidazol-1-yl)-N-[4-(trifluoromethyl)phenyl]-1,3,5-triazine-2,4-diamine] | 10 to 100
Nc1nc(Nc2ccc(OC(F)F)c(F)c2)nc(-n2c(C3CC3)nc3ccc(F)cc32)n1 [Cpd 64, 6-(2-cyclopropyl-6-fluoro-1H-benzimidazol-1-yl)-N-[4-(difluoromethoxy)-3-fluorophenyl]-1,3,5-triazine-2,4-diamine] | 10 to 100

Further lines, results first:

EC50 [nM] | Structure (SMILES)
10 to 100 | Cc1nc2ccc(F)cc2n1-c1nc(N)nc(Nc2ccc(OC(F)F)cc2)n1 [Cpd 28, N-[4-(difluoromethoxy)phenyl]-6-(6-fluoro-2-methyl-1H-benzimidazol-1-yl)-1,3,5-triazine-2,4-diamine]
10 to 100 | CCc1nc2c(F)cccc2n1-c1nc(N)nc(Nc2ccc(Cl)cc2)n1 [Cpd 214, N-(4-chlorophenyl)-6-(2-ethyl-4-fluoro-1H-benzimidazol-1-yl)-1,3,5-triazine-2,4-diamine]
10 to 100 | CCc1nc2c(F)cc(F)cc2n1-c1nc(N)nc(Nc2ccc(OC(F)F)cc2)n1 [Cpd 49, N-[4-(difluoromethoxy)phenyl]-6-(2-ethyl-4,6-difluoro-1H-benzimidazol-1-yl)-1,3,5-triazine-2,4-diamine]
10 to 100 | CCc1nc2c(F)cccc2n1-c1nc(N)nc(Nc2ccc(C(F)(F)F)cc2)n1 [Cpd 68, 6-(2-ethyl-4-fluoro-1H-benzimidazol-1-yl)-N-[4-(trifluoromethyl)phenyl]-1,3,5-triazine-2,4-diamine]
10 to 100 | CCc1nc2ccccc2n1-c1nc(N)nc(Nc2ccc(C(F)(F)F)cc2)n1 [Cpd 30, 6-(2-ethyl-1H-benzimidazol-1-yl)-N-[4-(trifluoromethyl)phenyl]-1,3,5-triazine-2,4-diamine]
10 to 100 | CCc1nc2ccccc2n1-c1nc(N)nc(Nc2ccc(Cl)c(F)c2)n1 [Cpd 198, N-(4-chloro-3-fluorophenyl)-6-(2-ethyl-1H-benzimidazol-1-yl)-1,3,5-triazine-2,4-diamine]
10 to 100 | Cc1nc2ccc(F)cc2n1-c1nc(N)nc(Nc2ccc(Cl)cc2)n1 [Cpd 166, N-(4-chlorophenyl)-6-(6-fluoro-2-methyl-1H-benzimidazol-1-yl)-1,3,5-triazine-2,4-diamine]
1 to 10 | Cc1ccc(Nc2nc(N)nc(-n3c(C)nc4c(F)cccc43)n2)cc1 [Cpd 180, 6-(4-fluoro-2-methyl-1H-benzimidazol-1-yl)-N-(4-methylphenyl)-1,3,5-triazine-2,4-diamine]
10 to 100 | Cc1nc2c(F)cccc2n1-c1nc(N)nc(Nc2ccc(Br)cc2)n1 [Cpd 219, N-(4-bromophenyl)-6-(4-fluoro-2-methyl-1H-benzimidazol-1-yl)-1,3,5-triazine-2,4-diamine]
10 to 100 | Cc1nc2c(F)cc(F)cc2n1-c1nc(N)nc(Nc2ccc(OC(F)F)c(F)c2)n1 [Cpd 48, N-[4-(difluoromethoxy)-3-fluorophenyl]-6-(4,6-difluoro-2-methyl-1H-benzimidazol-1-yl)-1,3,5-triazine-2,4-diamine]
1 to 10 | Cc1nc2ccccc2n1-c1nc(N)nc(Nc2ccc3c(c2)OCO3)n1 [Cpd 18, N-(1,3-benzodioxol-5-yl)-6-(2-methyl-1H-benzimidazol-1-yl)-1,3,5-triazine-2,4-diamine]
10 to 100 | Cc1nc2ccccc2n1-c1nncc(Nc2ccc(OC(F)F)cc2)n1 [Cpd 99, N-[4-(difluoromethoxy)phenyl]-3-(2-methyl-1H-benzimidazol-1-yl)-1,2,4-triazin-5-amine]
1 to 10 | Nc1nc(Nc2ccc(Br)cc2)nc(-n2c(C3CC3)nc3ccccc32)n1 [Cpd 224, N-(4-bromophenyl)-6-(2-cyclopropyl-1H-benzimidazol-1-yl)-1,3,5-triazine-2,4-diamine]
10 to 100 | Nc1nc(Nc2ccc(OC(F)F)cc2)nc(-n2c(C3CC3)nc3ccccc32)n1 [Cpd 43, 6-(2-cyclopropyl-1H-benzimidazol-1-yl)-N-[4-(difluoromethoxy)phenyl]-1,3,5-triazine-2,4-diamine]
10 to 100 | CCc1nc2cc(F)c(F)cc2n1-c1nc(N)nc(Nc2ccc(OC(F)F)cc2)n1 [Cpd 84, N-[4-(difluoromethoxy)phenyl]-6-(2-ethyl-5,6-difluoro-1H-benzimidazol-1-yl)-1,3,5-triazine-2,4-diamine]
10 to 100 | Cc1nc2ncc(Cl)cc2n1-c1nc(N)nc(Nc2ccc(C(F)(F)F)cc2)n1 [Cpd 33, 6-(6-chloro-2-methyl-1H-imidazo[4,5-b]pyridin-1-yl)-N-[4-(trifluoromethyl)phenyl]-1,3,5-triazine-2,4-diamine]
10 to 100 | CCc1nc2cc(F)ccc2n1-c1nc(N)nc(Nc2ccc(C)cc2)n1 [Cpd 174, 6-(2-ethyl-5-fluoro-1H-benzimidazol-1-yl)-N-(4-methylphenyl)-1,3,5-triazine-2,4-diamine]
10 to 100 | Nc1nc(Nc2ccc(C(F)(F)F)cc2)nc(-n2c(C3CC3)nc3c(F)cccc32)n1 [Cpd 85, 6-(2-cyclopropyl-4-fluoro-1H-benzimidazol-1-yl)-N-[4-(trifluoromethyl)phenyl]-1,3,5-triazine-2,4-diamine]
10 to 100 | Cc1nc2ncc(Cl)cc2n1-c1nc(N)nc(Nc2ccc(OC(F)F)cc2)n1 [Cpd 40, 6-(6-chloro-2-methyl-1H-imidazo[4,5-b]pyridin-1-yl)-N-[4-(difluoromethoxy)phenyl]-1,3,5-triazine-2,4-diamine]
10 to 100 | [O-][n+]1cc(Nc2ccc(C(F)(F)F)cc2)nc(-n2c(C3CC3)nc3ccccc32)n1 [Cpd 141, 3-(2-cyclopropyl-1H-benzimidazol-1-yl)-N-[4-(trifluoromethyl)phenyl]-1,2,4-triazin-5-amine 1-oxide]
1 to 10 | CCc1nc2ccccc2n1-c1cnnc(Nc2ccc(C)cc2)n1 [Cpd 218, 5-(2-ethyl-1H-benzimidazol-1-yl)-N-(4-methylphenyl)-1,2,4-triazin-3-amine]
1 to 10 | Cc1ccc(Nc2nc(N)nc(-n3c(C4CC4)nc4ccccc43)n2)cc1 [Cpd 155, 6-(2-cyclopropyl-1H-benzimidazol-1-yl)-N-(4-methylphenyl)-1,3,5-triazine-2,4-diamine]
